Reference: patent US7153826B2, “Treatment of rosacea” (Seatek Marine Biotechnology, Inc., priority 2000, dated 2006)
[ ]: non-standard residue; d: D form. Orn = NCCC[C@H](N)C(=O)O

What was measured:
rosacea [1] = test: Topical treatment of a human subject with moderately severe rosacea and pustular lesions (Example 1); format: in vivo
Method: The effectiveness of a cyclic decapeptide antibiotic for treating rosacea was determined on a human subject afflicted, for two years duration, with moderately severe rosacea and pustular lesions. […] The subject received topical metronidazole in a carbomer gel composition (Metrogel™) applied in the morning. Topical loloatin B (which was obtained by fermentation of the Bacillus deposited as ATCC 55797 generally following the methods described in WO98/04584) was applied in the evening. The loloatin was first dissolved in a minimal amount of alcohol which was then mixed with Lubriderm™ lotion to provide 1% w/v formulation.

rosacea [2] = conditions: metronidazole administered topically twice daily; cited from earlier work
rosacea [3] = test: Topical treatment of a subject afflicted with rosacea, two-year trial period (Example 2); format: in vivo, human
Source text: A subject afflicted with rosacea received topical Metrogel™ overlayed with Lubriderm™ lotion in the morning and 1% loloatin B formulated in Lubriderm™ (as described above) in the evening. […] With this combined treatment, the rosacea was controlled such that only a few lesions were present at any given time, and complete remissions of several days duration became common.

In the case of Cc1ncc([N+](=O)[O-])n1CCO [metronidazole, reference compound], the “benefit of previous treatments” value (rosacea [1]; previous treatments with metronidazole, same subject) is given as “without benefit” and the “patients who do not benefit from treatment” value (rosacea [2]) is given as “about 50%”.

For “cyclo[L-Val-L-Orn-L-Leu-D-Tyr-L-Pro-L-Phe-D-Phe-L-Asn-L-Asp-L-Trp] (cyclo(V[Orn]L[dY]PF[dF]NDW); SMILES CC(C)C[C@@H]1NC(=O)[C@H](CCCN)NC(=O)[C@H](C(C)C)NC(=O)[C@H](Cc2c[nH]c3ccccc23)NC(=O)[C@H](CC(=O)O)NC(=O)[C@H](CC(N)=O)NC(=O)[C@@H](Cc2ccccc2)NC(=O)[C@H](Cc2ccccc2)NC(=O)[C@@H]2CCCN2C(=O)[C@@H](Cc2ccc(O)cc2)NC1=O) [loloatin B]”, the “improvement in the rosacea on reinstituting the regimen” value (rosacea [1]; each time once daily Metrogel and once daily loloatin was reinstituted) was “significant improvement”, the “improvement in the rosacea” value (rosacea [1]; topical Metrogel in the morning plus 1% w/v loloatin B in Lubriderm lotion in the evening, after one month) was “Significant improvement” and the “control of the condition” value (rosacea [3]; combined Metrogel morning / 1% loloatin B evening, throughout the trial period (two years)) was “effectively controlled”. For the same compound, the “healing time of the lesions” value (rosacea [3]; combined treatment Metrogel morning / 1% loloatin B evening) was 2 to 3 days and the “course of the rosacea” value (rosacea [3]; topical Metrogel overlayed with Lubriderm in the morning plus 1% loloatin B in Lubriderm in the evening) was “Progressive improvement”.
